Measured values taken from publication PMC11573584, “Thanatin and vinyl sulfide analogues as narrow spectrum antimicrobial peptides that synergise with polymyxin B” (Frontiers in Pharmacology, 2024).
In brackets after ≈: the same amount, converted by molar mass. Like-named read-outs stand apart in the source and are kept apart here. Numbered stars: 1 amine (or outer) side, 2 acyl side, 3 side chain; on linkers, the order of the positions; unused ones are H or OH. Bridge positions count the residues as written; N and C are the ends. Square brackets hold non-standard residues; d marks the D form. Peptide text beside a SMILES is read from it. X1 = C=C(CC(=O)[*:1])[*:2]; X2 = C=C(CC(=O)[*:2])[*:1]; Dap = NC[C@H](N)C(=O)O

How the values were obtained:
[1] = tested on: Candida albicans SC5314 (type strain); assay: microbe, parasite or virus in culture; assay type: cell-based; conditions: read-out: Minimum inhibitory concentration (MIC)
Experimental: Candida albicans SC5314 (type strain) was grown using RPMI 1640 media (with glutamine and phenol red, without bicarbonate). MIC assays were performed in accordance with the CLSI recommended protocol ([Clinical and Laboratory Standards Institute, 2006], Performance standards for antimicrobial susceptibility testing; sixteenth informational supplement. CLSI document M100-S16, Wayne, PA., 2006). See SI for further details. […]
Antimicrobial susceptibility of Candida albicans SC5314 (type strain) was assessed by broth
microdilution in accordance with the CLSI recommended protocols (Clinical and Laboratory Standards
Institute, 2006, Performance standards for antimicrobial susceptibility testing; sixteenth informational
supplement. CLSI document M100-S16, Wayne, PA., 2006). Briefly, a two-fold dilution series of the
test compounds (from 64 μM to 0.25 μM, final) was prepared in triplicate in polypropylene 96-well
plates, using RPMI 1640 media (with glutamine and phenol red, without bicarbonate). Inoculum was
prepared from a 24 h old culture by picking 5 colonies (~1 mm in diameter) and resuspending these in
0.85% saline. Upon vortex mixing, the resulting suspension was diluted to provide a solution with
absorbance equivalent to that of a 0.5 McFarland standard, approx. 0.1 OD at 530 nm (using 1 cm path
length cuvette). This suspension was then diluted 1:50 and a further 1:20 with RPMI 1640 media to as
to achieve a final inoculum of […] to 2.5 x 10^3 CFU/mL upon addition to the plate. The plates
were incubated at 35 °C for 48 h, at which time the MIC was determined as the lowest test concentration
at which no turbidity was observed across all three replicates. The assay was performed independently
on three occasions and the reported MIC defined as the lowest concentration in which agreement was
observed for all three biological replicates.

[2] = tested on: Staphylococcus aureus ATCC 29213; assay: microbe, parasite or virus in culture; assay type: cell-based; conditions: for MIC: read-out: Minimum inhibitory concentration (MIC)
Experimental: (§1) Staphylococcus aureus ATCC 29213, Pseudomonas aeruginosa (SVB-B9) (type strain) and Escherichia coli ATCC 25922 were grown in cation adjusted Mueller Hinton (MH) broth at 37°C with shaking (200 rpm). MIC assays were performed in accordance with the CLSI recommended protocols ([Clinical and Laboratory Standards Institute, 2006], Performance standards for antimicrobial susceptibility testing; sixteenth informational supplement. CLSI document M100-S16, Wayne, PA., 2006). See SI for further details.
(§2) 4 Antimicrobial Testing of Thanatin* (5) and Analogues 8 – 11
(§3) 4.1 Antibacterial Testing
(§4) Staphylococcus aureus ATCC 29213, Pseudomonas aeruginosa (SVB-B9) (type strain) and
(§5) Escherichia coli ATCC 25922 were grown in cation adjusted Mueller Hinton (CAMHB) broth at 37
(§6) °C with shaking (200 rpm). MIC assays were performed in accordance with the CLSI recommended
(§7) protocol (Clinical and Laboratory Standards Institute, 2006, Performance standards for antimicrobial
(§8) susceptibility testing; sixteenth informational supplement. CLSI document M100-S16, Wayne, PA.,
(§9) 2006). Briefly, a two-fold dilution series of the test compounds (from […], final) was
(§10) prepared in triplicate in polypropylene 96-well plates in CAMHB. Fresh cultures of bacteria grown for
(§11) ca. 6 h were diluted accordingly in fresh media before adding 50 µL of inoculum to each well of the
(§12) MIC plate, to achieve a final volume of 100 µL with a uniform CFU/ml of ~5 x105 in each well. A
(§13) growth control (untreated) and sterility control (non-inoculated) well was included for each test
(§14) compound replicate. Plates were incubated at 37 °C with shaking for 18 h before determining the MIC.
(§15) MIC values were determined as the lowest concentration at which no growth was observed consistently
(§16) across all three biological replicates of the assay and within triplicates of each test compound. […]

[3] = tested on: Pseudomonas aeruginosa (SVB-B9) (type strain); assay type: cell-based; conditions: 18 h
Experimental: as §1, §2, §3, §4, §5, §6, §7, §8, §9, §10, §11, §12, §13, §14, §15, §16

[4] = tested on: Escherichia coli ATCC 25922; assay type: cell-based
Experimental: as §1, §2, §3, §4, §5, §6, §7, §8, §9, §10, §11, §12, §13, §14, §15, §16

[5] = tested on: P. aeruginosa; conditions: ref Cirioni et al., 2011, cited from earlier work
[6] = tested on: E. coli ATCC 25922; conditions: non-cation adjusted media, ref Wu et al. (2013); cited from earlier work
Description: (§17) TABLE 1 Minimum Inhibitory Concentrations (MICs) of thanatin* (5) and similar analogues against a variety of pathogens. | column: Minimum inhibitory concentration (µM) / Thanatin ^a ^, ^b (1); Minimum inhibitory concentration (µM) / S-Thanatin ^a (3) || TABLE 2 Minimum Inhibitory Concentrations (MICs) of thanatin* (5) and analogues (8–11) towards a variety of pathogens. | column: Minimum inhibitory concentration (µM) / 1 (Thanatin) ^a

[7] = tested on: S. aureus ATCC 25923; conditions: non-cation adjusted media, ref Sinha et al. (2022); cited from earlier work
Description: as §17, with “Thanatin M21F ^b (4)” for “S-Thanatin ^a (3)”

[8] = tested on: P. aeruginosa ATCC 27853; conditions: non-cation adjusted media, ref Sinha et al. (2022); cited from earlier work
Description: (§18) TABLE 1 Minimum Inhibitory Concentrations (MICs) of thanatin* (5) and similar analogues against a variety of pathogens. | column: Minimum inhibitory concentration (µM) / Thanatin ^a ^, ^b (1); Minimum inhibitory concentration (µM) / Thanatin M21F ^b (4)

[9] = tested on: E. coli BL21; conditions: non-cation adjusted media, ref Sinha et al. (2022); cited from earlier work
Description: as §18

| Molecule | Minimum inhibitory concentration (MIC) ([3]; SVB-B9) (type strain) [µM] | Minimum inhibitory concentration (MIC) ([4]; ATCC 25922, 18 h) [µM] | MIC ([1]; SC5314, 48 h) [µM] | MIC ([2]; ATCC 29213, 18 h) [µM] | further results |
| --- | --- | --- | --- | --- | --- |
| C[C@@H]1[C@H](O)[C@@H](C)/C=C/C=C/C=C/C=C/C=C/C=C/C=C/[C@H](O[C@@H]2O[C@H](C)[C@@H](O)[C@H](N)[C@@H]2O)C[C@@H]2O[C@](O)(C[C@@H](O)C[C@@H](O)[C@H](O)CC[C@@H](O)C[C@@H](O)CC(=O)O[C@H]1C)C[C@H](O)[C@H]2C(=O)O [AMB, amphotericin B, reference compound] | – | – | – | – | MIC ([1]; Candida albicans, C. albicans SC5314, RPMI 1640 media, 35 °C, 48 h, triplicate, three independent assays): 1 µM (≈ 0.924 µg/mL) |
| CC1(C)S[C@@H]2[C@H](NC(=O)[C@H](N)c3ccc(O)cc3)C(=O)N2[C@H]1C(=O)O [AMX, amoxicillin, reference compound] | – | – | – | – | MIC ([2]; Staphylococcus aureus, ATCC29213, S. aureus ATCC 29213, cation adjusted Mueller Hinton broth, 37 °C, 18 h, ~5 x10^5 CFU/mL, triplicate, three biological replicates): 2 µM (≈ 0.731 µg/mL) |
| CC[C@H](C)[C@H](NC(=O)[C@@H](NC(=O)[C@@H]1CCCN1C(=O)[C@@H](NC(=O)[C@@H]1CCCN1C(=O)[C@H](CCCCN)NC(=O)[C@H](CCCCN)NC(=O)[C@H](CO)NC(=O)CN)C(C)C)[C@@H](C)CC)C(=O)N[C@@H](Cc1ccc(O)cc1)C(=O)N[C@H]1CSSC[C@@H](C(=O)N[C@@H](CCC(N)=O)C(=O)N[C@@H](CCCNC(=N)N)C(=O)N[C@@H](Cc2ccccc2)C(N)=O)NC(=O)[C@H](CCCCN)NC(=O)CNC(=O)[C@H](CO)NC(=O)[C@H](CCCNC(=N)N)NC(=O)[C@H](CCCNC(=N)N)NC(=O)[C@H](CC(N)=O)NC1=O [Thanatin* (5), thanatin*] (H-GSKKPVPIIYCNRRSGKCQRF-NH2; disulfide 11-18) | >64 | 1 (≈ 2.43 µg/mL) | >64 | >64 | selectivity towards E. coli over P. aeruginosa ([4]; ratio of MICs, P. aeruginosa (SVB-B9) vs E. coli ATCC 25922, cation adjusted media): > 64 fold; Minimum inhibitory concentration (MIC) ([2]; S. aureus ATCC 29213, cation adjusted Mueller Hinton broth, 37 °C, 18 h, ~5 x10^5 CFU/mL, triplicate, three biological replicates): no activity |
| C=C1CC(=O)NCCCC[C@H](NC(=O)[C@H](Cc2ccc(O)cc2)NC(=O)[C@@H](NC(=O)[C@@H](NC(=O)[C@@H]2CCCN2C(=O)[C@@H](NC(=O)[C@@H]2CCCN2C(=O)[C@H](CCCCN)NC(=O)[C@H](CCCCN)NC(=O)[C@H](CO)NC(=O)CN)C(C)C)[C@@H](C)CC)[C@@H](C)CC)C(=O)N[C@@H](CC(N)=O)C(=O)N[C@@H](CCCNC(=N)N)C(=O)N[C@@H](CCCNC(=N)N)C(=O)N[C@@H](CO)C(=O)NCC(=O)N[C@@H](CCCCN)C(=O)N[C@H](C(=O)N[C@@H](CCC(N)=O)C(=O)N[C@@H](CCCNC(=N)N)C(=O)N[C@@H](Cc2ccccc2)C(N)=O)CS1 [compound 8] (H-GSKKPVPIIYKNRRSGKCQRF-NH2; linker 11-18 via X1) | >64 | 4 (≈ 10.1 µg/mL) | >64 | >64 | – |
| C=C1CC(=O)NC[C@H](NC(=O)[C@H](Cc2ccc(O)cc2)NC(=O)[C@@H](NC(=O)[C@@H](NC(=O)[C@@H]2CCCN2C(=O)[C@@H](NC(=O)[C@@H]2CCCN2C(=O)[C@H](CCCCN)NC(=O)[C@H](CCCCN)NC(=O)[C@H](CO)NC(=O)CN)C(C)C)[C@@H](C)CC)[C@@H](C)CC)C(=O)N[C@@H](CC(N)=O)C(=O)N[C@@H](CCCNC(=N)N)C(=O)N[C@@H](CCCNC(=N)N)C(=O)N[C@@H](CO)C(=O)NCC(=O)N[C@@H](CCCCN)C(=O)N[C@H](C(=O)N[C@@H](CCC(N)=O)C(=O)N[C@@H](CCCNC(=N)N)C(=O)N[C@@H](Cc2ccccc2)C(N)=O)CS1 [compound 9] (H-GSKKPVPIIY[Dap]NRRSGKCQRF-NH2; linker 11-18 via X1) | >64 | 16 (≈ 39.8 µg/mL) | >64 | >64 | reduction in potency compared to thanatin* (5) ([4]; E. coli ATCC 25922 MIC): 16 fold |
| C=C1CC(=O)NCCCC[C@@H](C(=O)N[C@@H](CCC(N)=O)C(=O)N[C@@H](CCCNC(=N)N)C(=O)N[C@@H](Cc2ccccc2)C(N)=O)NC(=O)[C@H](CCCCN)NC(=O)CNC(=O)[C@H](CO)NC(=O)[C@H](CCCNC(=N)N)NC(=O)[C@H](CCCNC(=N)N)NC(=O)[C@H](CC(N)=O)NC(=O)[C@@H](NC(=O)[C@H](Cc2ccc(O)cc2)NC(=O)[C@@H](NC(=O)[C@@H](NC(=O)[C@@H]2CCCN2C(=O)[C@@H](NC(=O)[C@@H]2CCCN2C(=O)[C@H](CCCCN)NC(=O)[C@H](CCCCN)NC(=O)[C@H](CO)NC(=O)CN)C(C)C)[C@@H](C)CC)[C@@H](C)CC)CS1 [compound 10] (H-GSKKPVPIIYCNRRSGKKQRF-NH2; linker 11-18 via X2) | >64 | 4 (≈ 10.1 µg/mL) | >64 | >64 | – |
| C=C1CC(=O)NC[C@@H](C(=O)N[C@@H](CCC(N)=O)C(=O)N[C@@H](CCCNC(=N)N)C(=O)N[C@@H](Cc2ccccc2)C(N)=O)NC(=O)[C@H](CCCCN)NC(=O)CNC(=O)[C@H](CO)NC(=O)[C@H](CCCNC(=N)N)NC(=O)[C@H](CCCNC(=N)N)NC(=O)[C@H](CC(N)=O)NC(=O)[C@@H](NC(=O)[C@H](Cc2ccc(O)cc2)NC(=O)[C@@H](NC(=O)[C@@H](NC(=O)[C@@H]2CCCN2C(=O)[C@@H](NC(=O)[C@@H]2CCCN2C(=O)[C@H](CCCCN)NC(=O)[C@H](CCCCN)NC(=O)[C@H](CO)NC(=O)CN)C(C)C)[C@@H](C)CC)[C@@H](C)CC)CS1 [compound 11] (H-GSKKPVPIIYCNRRSGK[Dap]QRF-NH2; linker 11-18 via X2) | >64 | 8 (≈ 19.9 µg/mL) | >64 | >64 | – |
| S-thanatin [S-Thanatin (3)] | – | – | – | – | FICI ([5]; S-thanatin with colistin (polymyxin E)): 0.46; MIC [5]: 16 µg/mL; Minimum inhibitory concentration (MIC) [6]: 1.6 µM |
| polymyxin B [PMB, reference compound] | – | – | – | – | Minimum inhibitory concentration (MIC) ([3]; P. aeruginosa (SVB-B9) type strain, cation adjusted Mueller Hinton broth, 37 °C, ~5 x10^5 CFU/mL, triplicate, three biological replicates): 0.125 µM; Minimum inhibitory concentration (MIC) ([4]; E. coli ATCC 25922, cation adjusted Mueller Hinton broth, 37 °C, 18 h, ~5 x10^5 CFU/mL, triplicate, three biological replicates): 0.125 µM |
| thanatin M21F [Thanatin M21F (4)] | – | – | – | – | Minimum inhibitory concentration (MIC) [7]: 0.5 µM; Minimum inhibitory concentration (MIC) [8]: 0.5 µM; Minimum inhibitory concentration (MIC) [9]: 0.5 µM |
